Reference: a melting point compilation (Tetko et al.; mined from patent text by program, amines drawn as free bases though some values may be those of a salt)

Row | melting point [°C] | SMILES
1 | 95.9 to 96.7 | COC(=O)c1cc(-c2ccc(F)c(C)c2)nn(CC=Cc2ccccc2)c1=O
2 | 149 to 151 | NC(=O)C1C=Cc2ccccc2N1C(=O)c1ccc(F)cc1 (stereo not drawn)
3 | 62 to 63.5 | c1ccc(C(c2ccccc2)N2CCc3ccccc32)cc1
4 | 152 to 154 | Cn1nc(C(O)c2ccccn2)nc1NCCCOc1cccc(CN2CCCCC2)c1 (stereo not drawn)
5 | 135 to 137 | CC1(C)C(=O)Oc2ccc3ccc(C=O)cc3c21
6 | 209 to 211 | CCN[C@H]1CCN(c2c(-c3ccccc3)c(C)c(C#N)c3nc(C4CC4)oc23)C1
7 | 168 to 170 | CC(C)(S)CN1C(=O)NC(=O)C1=O
8 | 177 | O=C(NC[C@@H](C(=O)NO)N1CCCCC1)c1ccc(OCc2ccnc(-c3ccccc3)c2)cc1
9 | 185 to 187 | COc1ccc(-c2[nH]cnc2-c2cc(OC)c(Br)c(OC)c2)cc1O
10 | 164 to 166 | CCOCc1nc2c(N)nc3cc(OCCCc4cccc(N)c4)ccc3c2n1CC(C)(C)O
11 | 140 to 141 | CCOc1cc(OCC)c(C=NNC(=N)NCc2ccccc2)c(OCC)c1
12 | 60 to 75 | CC(=O)Oc1c(C)c(C)c(O)c(C(C)=NOCCOc2ccc(CC3SC(=O)NC3=O)cc2)c1C (stereo not drawn)
13 | 157 to 159 | Nc1cc(Cl)cc(Cl)c1C(=O)NCc1cccc(Br)c1
14 | 195 to 197 | Cc1ccccc1-c1cc2cnc(N)nc2nc1NC(=O)NC(C)(C)C
15 | 204 to 206 | Clc1ncnc2c1ncn2-n1cccc1
16 | 179 to 180 | CC1(CC(=O)O)OCCC2=C1Cc1ccccc12 (stereo not drawn)
17 | 184 | CCCc1ccc(C(=O)Nc2ccc3sc(C)nc3c2Cl)cc1
18 | 79 to 82 | O=C1C(CCO)Oc2cc(F)ccc2N1Cc1cccc(Cl)c1 (stereo not drawn)
19 | 210 to 212 | O=c1ccccn1[C@@H]1c2cc(C(F)(F)F)ccc2OC(CF)(CF)[C@H]1O (relative stereo)
20 | 255 | c1ccc(-c2cc3nnc(-c4cnccn4)n3nc2OCc2nc[nH]n2)cc1
21 | 177 to 179 | CC(=O)OCc1cc2c3ccccc3[nH]c(=O)n2n1
22 | 67 to 68 | Cc1coc(Cc2ccc([N+](=O)[O-])cc2)n1
23 | 75 to 76 | Cc1nc2sc3ccccc3n2n1
24 | 162 to 163 | COc1c(C)c2c(c(C)c1NC(=O)CC(C)(C)C)C(c1ccc(C(C)C)cc1)CO2 (stereo not drawn)
25 | 240 to 243 | Cc1nc2cc(NC(=O)Nc3ccc(C(F)(F)F)cc3)ccc2o1

Row | melting point [°C] | SMILES
26 | 156 | Cc1nc2n(c(=O)c1CCN1CCC(c3noc4cc(F)ccc34)CC1)CC(O)CC2 (stereo not drawn)
27 | 132 to 134 | CCc1ccnc2cc(OC)c(OCc3ccccc3)cc12
28 | 163 to 164 | CC(C)(C)n1cc(-c2ccc(N(C=O)c3ccccc3)cc2)c2cncnc21
29 | 157 to 158 | CSc1ccc(-c2cc(C(F)F)nn2-c2ccc(S(N)(=O)=O)cc2)cc1
30 | 171 to 173 | O=c1oc(-c2ccc(S(=O)c3ccccc3)cc2)cc(O)c1SCCc1ccccc1 (stereo not drawn)
31 | 103 to 105 | C=C(C)C(=O)Oc1c(C(C)c2cc(C(C)(C)CC)cc(C(C)(C)CC)c2O)cc(C(C)(C)CC)cc1C(C)(C)CC (stereo not drawn)
32 | 132 to 134 | Nc1nc(Cl)cc(NC2C=CC(CO)C2)n1 (stereo not drawn)
33 | 96 | CCN(CC)C(=O)Oc1cc(-c2cccc(C(F)(F)F)c2)nc2ccccc12
34 | 110 to 112 | C=C(C)CCOc1c(-c2ccc(S(C)(=O)=O)cc2)cnn(-c2cccc(Cl)c2)c1=O
35 | 68 | Cc1cc2c(cc1C(=O)CBr)C(C)(C)CC(C)C2(C)C (stereo not drawn)
36 | 141 to 142 | CCOC(=O)C(C)(C)c1ccc(C(O)CCCN2CCC(C(O)(c3ccccc3)c3ccccc3)CC2)cc1 (stereo not drawn)
37 | 115 to 122 | Cc1nc2c3c(ccn2c1C)[C@H](O)[C@](O)(Cc1ccccc1)[C@@H](c1ccccc1)N3
38 | 63 to 70 | CCOCCc1cc(OC)c(-c2ccc(C[C@H](NC(=O)c3c(F)cccc3F)C(=O)O)cc2)c(OC)c1
39 | 101 to 108 | C[C@@H](NC(=O)c1sc(-c2ccc(C#N)cc2)nc1C(F)(F)F)[C@](O)(Cn1cncn1)c1ccc(F)cc1F
40 | 97 | O=c1oc2ccccc2c(OCCN2CCOCC2)c1-c1ccccc1
41 | 140 to 142 | COc1cn(-c2ccc(C3CC3)cc2F)nc(-c2ccnn2-c2ccccc2)c1=O
42 | 71 to 72 | N#Cc1ccc(C(F)(F)F)c(C(F)(F)F)c1
43 | 122 to 124 | CCOC(=O)Cc1ccc(NC(=O)C(COc2ccccc2)NS(=O)(=O)c2ccc(F)cc2)cc1 (racemic)
44 | 72 to 74.5 | CONS(=O)(=O)c1cccc(Cl)c1
45 | 147 to 149 | Cc1ccc(S(=O)(=O)N2C3=NC(C)(C)N(C)C(=O)N3c3ccccc32)cc1
46 | 214 | CCOc1ccc(-c2cc(Nc3ccc(OC)c(Cl)c3)nc(NC(C)=O)n2)cc1
47 | 97 to 99 | CCOC(=NC(=O)C1CC1)N1Cc2ccccc2-c2ccccc2C1
48 | 162 to 163 | OCC1(CO)c2ccccc2C=Cc2ccccc21
49 | 45 to 50 | O=C(CCCC1CCCCC1)C1=C(O)CSC1=O
50 | 143 to 145 | CCC1CCCCN1C(=O)C=Cc1c(-c2cccc(NC(=O)OC)c2)nn2ccccc12 (stereo not drawn)

The remaining lines, values behind:

Row | SMILES | melting point [°C]
51 | Oc1nc(C2CC2)nc2c1SCCC2 | 249 to 250
52 | COc1ccc(C=C2CCc3c2nc2ccc(C)cn2c3=O)cc1 | 210 to 211
53 | CCS(=O)(=O)c1ccc(C(=O)O)c(Cl)c1Cl | 170 to 172
54 | O=C1c2cccc3cc(OS(=O)(=O)C(F)(F)F)cc(c23)C(=O)N1O | 167 to 169
55 | CCCc1nc(N)nc(N)c1N1CCN(c2ccc(C(=O)N[C@@H](CCC(=O)OCC)C(=O)OCC)cc2)CC1 | 175 to 180
56 | CC(=O)c1ccc2c(=O)c(Br)c(C)oc2c1 | 124
57 | Cc1c(O)cc2c(c1C)N(C=O)CC2 | 192 to 193
58 | CCCCCCCCCCCCC#CCC(NC(C)=O)(C(=O)OCC)C(=O)OCC | 43 to 43.5
59 | CC(C)CC(NC(=O)C(Cc1c[nH]cn1)NC(=O)C(CC(=O)N1CCOCC1)Cc1cccc2ccccc12)C(O)C(=O)OC(C)C (mixture of isomers) | 95 to 98
60 | COc1ccc(-c2cc(-c3c(-c4cccc(C)n4)nc4ccccn34)ccn2)cc1 | 174
61 | CCOC(=O)c1cnc2c(cnn2CC)c1O | 85 to 87
62 | Nc1nc(Oc2ccccc2)nc2nc(-c3ccco3)nn12 | 250 to 252
63 | Cc1c(N2CC[C@@H](C3(NCCO)CC3)C2)c(F)cc2c(=O)c(C(=O)O)cn([C@@H]3C[C@@H]3F)c12 | 168 to 170
64 | COc1cc2ncnc(N3CCC(NCc4ccccn4)CC3)c2cc1OC | 151 to 155
65 | CCCCCCCN(CCN1CCN(CCSc2nc3c(C)c(Cl)cc(C(C)C)c3o2)CC1)C(=O)Nc1c(C(C)C)cc(O)cc1C(C)C | 138 to 140
66 | CSc1ccc(C(=O)NCc2ccc3c(c2)C(=O)N(C2CCC(=O)NC2=O)C3=O)nc1 (stereo not drawn) | 185 to 187
67 | CC(=O)c1ccc(-c2cc(-c3nc4ccccc4c(=O)n3-c3ccc(Cl)cc3)sc2N2CCOCC2)cc1 | 222 to 226
68 | Nc1nc(Cl)cc(NCC2(CO)COC2)n1 | 185 to 186
69 | N#CCC1CCN(c2ccc(N3C[C@H](CO)OC3=O)cc2)CC1 | 110 to 112
70 | C#CCN1CC(=O)N(c2c(C)cccc2C)C1=S | 117 to 121
71 | O=C1NC(=O)c2c1cnc1[nH]ncc21 | 285 to 300
72 | CCOC(=O)c1ccc(-c2ccc(OC)c3c2OCCO3)cc1 | 141 to 142
73 | CC(C)(C)c1cc(OCc2ccc(C#N)cc2)cc(C(C)(C)C)c1O | 166 to 169
74 | COc1ccc(S(=O)(=O)Nc2cnccc2Nc2ccccc2)cc1 | 201 to 202

Row | SMILES | melting point [°C]
75 | CC(=Nc1ccccc1)NC(=S)NCc1cccnc1 | 143 to 144
76 | CCC(=NO)c1ccncc1 | 141 to 144
77 | CC(C)(C)CC(C)(C)c1ccc(OCCOCCO)c(O)c1 | 112 to 113
78 | CC(C)(C)OC(=O)N1CCC(c2nc3ccc(-c4ccc(S(C)(=O)=O)cc4F)cc3o2)CC1 | 174 to 178
79 | CC1CC(=O)NN=C1c1ccc(NC(=NC#N)NCc2ccccn2)cc1 (stereo not drawn) | 212 to 214
80 | Cc1ccc(C(=O)/C=C/c2c(-c3ccc(F)cc3)nc3sccn23)cc1C | 210 to 213
81 | CC(C)Nc1c(-c2c(F)cc(F)cc2F)c(F)nc2nccnc12 | 127 to 128
82 | COC(=O)CCCN1CCC(CNC(=O)[C@@H]2CCCN2S(=O)(=O)c2ccc(Cl)c(COc3cccc4c(-n5ccnc5)cc(C)nc34)c2Cl)CC1 | 98
83 | Cc1cccc(NC(=O)NC2N=C(c3ccccc3F)c3ccccc3N(Cc3ccsc3)C2=O)c1 (racemic) | 221 to 223
84 | c1cnc2c(c1)NCCCC2 | 70 to 71
85 | Cc1cccc(C(C(O)C(C)(C)C)n2ccnc2)c1 (stereo not drawn) | 126
86 | Cc1cccc(NC(=O)c2cc(C#N)cc(C)n2)n1 | 244
87 | O=C(CNC(=O)OCc1ccccc1)Nc1nnc(SCc2ccccc2)s1 | 200 to 202
88 | CC(C)(C)OC(=O)N1CCCN(c2ccc([N+](=O)[O-])cc2)CC1 | 128 to 130
89 | N#CC1=C2N(Cc3ccc(Cl)nc3)CCN2C2CCC1O2 (stereo not drawn) | 125 to 127
90 | C=C(C)C(=O)N=c1ccn(-c2ccccc2)nc1 | 136
91 | CN1C(=O)CCC1CN1C(=O)C2(COc3cc4c(cc32)CCO4)c2ccccc21 (stereo not drawn) | 72 to 76
92 | Cc1ccccc1C(=O)Nc1ccc(C(=O)N2CCCC(OCC(=O)N3CCSCC3)c3ccccc32)cc1 (stereo not drawn) | 235 to 237
93 | Cc1ccc(S(=O)(=O)CCC2OCCO2)cc1 | 78 to 80
94 | N#CN=C(NCC(=O)O)Nc1cccc(Cl)c1 | 109
95 | Cc1cc(C)c(C(=O)ON2C(C)(C)c3ccccc3C2(C)C)c(C)c1 | 181 to 183
96 | Cc1ccc(-c2ccc(NN)nn2)c(OCC(O)CNC(C)(C)C)c1 (stereo not drawn) | 145 to 155
97 | Cc1ccccc1C(=O)Nc1ccc(C(=O)N2Cc3cccn3-c3ccccc32)cc1 | 206 to 207
98 | COC(=O)c1ccc2oc(=O)n(Cc3cccc(-c4ncc(OCCCN(C)C)cn4)c3)c2c1 | 125
